Legend:
human A2B receptors = target: T1, human A2B receptors (Homo sapiens, UniProt P29275); experiment: Binding at human A2B receptors expressed in HEK-293 cells vs [125I]-ABOPX; conditions: read-out: Ki hA2B (converted)
T1 construct: expressed in transfected cells; host or cells: HEK-293
T1 sequence (P29275 1-332): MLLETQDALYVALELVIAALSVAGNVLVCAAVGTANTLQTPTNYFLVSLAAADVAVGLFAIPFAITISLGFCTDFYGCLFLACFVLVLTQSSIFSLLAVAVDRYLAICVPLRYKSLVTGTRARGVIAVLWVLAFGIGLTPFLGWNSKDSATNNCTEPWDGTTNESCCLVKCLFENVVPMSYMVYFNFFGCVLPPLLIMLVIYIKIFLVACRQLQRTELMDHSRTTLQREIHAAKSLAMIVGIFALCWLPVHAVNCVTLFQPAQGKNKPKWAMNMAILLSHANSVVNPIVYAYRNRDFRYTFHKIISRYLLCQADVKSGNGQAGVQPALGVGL
Experimental: The human A2B receptor cDNA was subcloned into the expression plasmid pDoubleTrouble [[Robeva et al., 1996a]]. The plasmid was amplified in competent JM109 cells and plasmid DNA isolated using Wizard Megaprep columns (Promega Corp., Madison, WI).
Transfected HEK cells were grown under 5% CO2/[…] humidified atmosphere at a temperature of 37°C. Colonies were selected by growth of cells in 0.6 mg/mL G418. Transfected cells were maintained in DMEM supplemented with Hams F12 nutrient mixture (1/1), 10% newborn calf serum, 2 mM glutamine, and containing 50 IU/mL penicillin, 50 μg/mL streptomycin, and 0.2 mg/mL Geneticin (G418, Boehringer Mannheim, Indianapolis, IN). Cells were cultured in 10 cm diameter round plates and subcultured when grown confluent (approximately after 72 h).
Confluent monolayers of HEK-A2B cells were washed with PBS followed by ice-cold Buffer A (10 mM HEPES, 10 mM EDTA, pH 7.4) with protease inhibitors ([…] benzamidine, […], and […] of each aprotinin, pepstatin, and leupeptin). The cells were homogenized in a Polytron (Brinkmann) for 20 sec, centrifuged at 30,000g, and the pellets washed twice with buffer HE (10 mM HEPES, 1 mM EDTA, pH 7.4 with protease inhibitors). The final pellet was resuspended in buffer HE, supplemented with 10% sucrose and frozen in aliquots at −80°C. For binding assays, membranes were thawed and diluted 5–10-fold with HE to a final protein concentration of approximately 1 mg/mL. To determine protein concentrations, membranes, and bovine serum albumin standards were dissolved in 0.2% NaOH/0.01% SDS and protein determined using fluorescamine fluorescence [[Stowell et al., 1978]]. […] To prepare [^125I-]ABOPX, […] of 1 mM ABOPX in methanol/1 M NaOH (20:1) was added to […] of 100 mM phosphate buffer, pH 7.3. One or 2 mCi of Na^125I was added, followed by […] of 1 mg/mL chloramine-T in water. After incubating for 20 min at room temperature, 50 mL of 10 mg/mL Na-metabisulfite in water was added the quench the reaction. The reaction products were applied to a C18 HPLC column using 4 mM phosphate, pH 6.0/methanol. After 5 min in 35% methanol, the methanol concentration was ramped to 100% over 15 min. Unreacted ABOPX eluted in 11–12 min; [^125I-]ABOPX eluted at 18–19 min in a yield of 50–60% of the initial ^125I. In equilibrium binding assays the ratio of [^127I/^125I-]ABOPX was 10–20/1. […] The incubation time was 3 h at 21°C. […] Competition experiments were carried out using 0.6 nM ^125I-ABOPX. Membranes were filtered on Whatman GF/C filters using a Brandell cell harvester (Gaithersburg, MD) and washed three times over 15–20 sec with ice-cold buffer (10 mM Tris, 1 mM MgCl2, pH 7.4). Bmax and KD values were calculated by Marquardt’s nonlinear least squares interpolation for single site binding models [[Marquardt, 1963]]. Ki values for different compounds were derived from IC50 values as described previously [[Linden, 1982]]. Data from replicate experiments are tabulated as means ± SEM.
(§1) At A2B receptors, two radioligand binding assays (Table 1) were used. Ki values of xanthine derivatives were determined in displacement of binding of the non-selective radioligands […], 8 (4-(2-[7-amino-2-{furyl}{1,2,4}triazolo{2,3-a}{1,3,5}tr nzyl)-8-phenyloxyacetate-1-propyl-xanthine), at human A2B receptors expressed in HEK-293 cell membranes [[Linden and Jacobson, 1998]]. In order to evaluate selectivity, selected derivatives were subjected to standard binding assays at A1, A2A, and A3 receptors. The initial screening utilized rat brain A1/A2A receptors (with radioligands [^3H]R-PIA and [^3H]CGS-21680), and selected compounds were examined at the recombinant human subtypes (Table 1), using [^3H]CPX ([^3H]8-cyclopentyl-1,3-dipropylxanthine) and ^125I-ZM 241385, ^125I-4-(2-[7-amino-2-[2-furyl][1,2,4]triazolo[2,3-a][1,3,5]triazin-5-yl-amino]ethyl)phenol) [[Palmer et al., 1996]].

human A3 receptors = target: T2, human A3 receptors (Homo sapiens, UniProt P0DMS8); experiment: Binding at recombinant human A3 receptors expressed in HEK-293 cells vs [125I]ABA; conditions: recombinant human A3 in HEK-293 cells, read-out: Ki hA3
T2 construct: expressed in transfected cells; host or cells: HEK-293
T2 sequence (P0DMS8 1-318): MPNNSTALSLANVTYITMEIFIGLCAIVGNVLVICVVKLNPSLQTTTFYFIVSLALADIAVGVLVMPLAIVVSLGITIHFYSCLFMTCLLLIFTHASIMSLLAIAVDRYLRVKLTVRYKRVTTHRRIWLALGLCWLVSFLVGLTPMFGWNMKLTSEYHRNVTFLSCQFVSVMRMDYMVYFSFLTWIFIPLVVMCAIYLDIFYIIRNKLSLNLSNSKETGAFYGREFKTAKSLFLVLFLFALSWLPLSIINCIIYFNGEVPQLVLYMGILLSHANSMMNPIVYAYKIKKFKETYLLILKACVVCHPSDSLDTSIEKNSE
Experimental: All nonradioactive compounds were initially dissolved in DMSO and diluted with buffer to the final concentration, where the amount of DMSO never exceeded 2%. Incubations were terminated by rapid filtration over Whatman GF/B filters using a Brandell cell harvester. The tubes were rinsed three times with 3 mL buffer each.
At least six different concentrations of competitor, spanning 3 orders of magnitude adjusted appropriately for the IC50 value of each compound, were used. IC50 values, calculated with the nonlinear regression method implemented in Graph-Pad Prism (San Diego, CA) were converted to apparent Ki values as described by [Linden [1982]]. Hill coefficients of the tested compounds were in the range of 0.8–1.1.
as §1

| Ki (human A2B receptors) [nM] | Ki (human A3 receptors) [nM] | Structure (SMILES) |
| --- | --- | --- |
| 34.5 | 48.5 ± 0.8 | CCCn1c(=O)c2[nH]c(-c3ccc(OCC(=O)OCC)cc3)nc2n(CCC)c1=O [Compound 4b] |
| 33.8 | 30.9 ± 8.2 | CCCn1c(=O)c2[nH]c(-c3ccc(OCC(=O)NNC(C)=O)cc3)nc2n(CCC)c1=O [Compound 4e, 8-[4-[(Carboxymethyl)oxy]phenyl]-1,3-di-(n-propyl)xanthine N-Acetylhydrazide] |

The remaining lines, values behind:

| Structure (SMILES) | Ki (human A2B receptors) [nM] | Ki (human A3 receptors) [nM] |
| --- | --- | --- |
| CCCn1c(=O)[nH]c(=O)c2[nH]c(-c3ccc(OCC(=O)NN4C(=O)C(C)=C(C)C4=O)cc3)nc21 [Compound 15, 8-[4-[(Carboxymethyl)oxy]phenyl]-1H-3-(n-propyl)xanthine N,N-[(1,2-Dimethyl)maleyl]hydrazide] | 1900 | 14200 |
| CCCn1c(=O)c2[nH]c(-c3ccc(OCC(=O)NN4C(=O)c5ccccc5C4=O)cc3)nc2n(CCC)c1=O [Compound 21, 8-[4-[(Carboxymethyl)oxy]phenyl]-1,3-di-(n-propyl)xanthine N,N-Phthaloylhydrazide] | 46.4 | 147 ± 21 |
| CCCn1c(=O)c2[nH]c(-c3ccc(OCC(=O)NNC(=O)CCC(=O)O)cc3)nc2n(CCC)c1=O [Compound 9, 8-[4-[(Carboxymethyl)oxy]phenyl]-1,3-di-(n-propyl)xanthine N-[(3-Carboxy)-n-propionyl]hydrazide] | 97.8 | 173 ± 27 |
| CCCn1c(=O)c2[nH]c(-c3ccc(OCC(=O)NN4C(=O)C(C)=C(C)C4=O)cc3)nc2n(CCC)c1=O [Compound 14, 8-[4-[(Carboxymethyl)oxy]phenyl]-1,3-di-(n-propyl)xanthine N,N-[(1,2-Dimethyl)maleyl]hydrazide] | 33.8 | 670 ± 154 |

Source: PMC9196953 (Drug development research, 1999)
